Measurements from patent US20230226079A1, “METHODS AND COMPOSITIONS FOR TREATMENT OF SOLID TUMORS” (Saint Louis University, priority 2022, published 2023).
“Also recorded” adds a separate entry of the source.

Experiments:
[1] = system: Ca127 cells; assay: Cytotoxicity assay (Cell Counting Kit-8) in Ca127 cells; type: cell-based; conditions: 48 h, treated for 48 h; read-out: IC50 dose, Ca127 cells
Description: Normal oral keratinocytes (NOK) (kindly gifted by Dr. Karl Mugner, Tuffs University, Boston, MA, USA) were maintained in Keratinocyte SFM medium supplemented with EGF and bovine pituitary extract (GIBCO, Life Technologies, Berkeley, MO, USA) and 1% penicillin/ streptomycin. HNC cell line Ca127 was purchased from the ATCC. JHU029 (JHU-29) and JHU022 (JHU-22) cell lines were procured from the Johns Hopkins University (Baltimore, MD, USA). The Ca127 and JHU022 cells were maintained in Dulbecco's Modified Eagle Medium (DMEM), and JHU029 cells were in RPMI1640 (Sigma, St. Louis, Mo., USA) media supplemented with 10% FBS and 1% penicillin/ streptomycin (Sigma-Aldrich, St. Louis, Mo., USA) in a humidified CO2 incubator. The cell lines are routinely tested in the Inventors' laboratory to rule out mycoplasma contamination using a commercial Mycoplasma Detection kit (MycoAlert™, Lonza, Morrisville, N.C., USA). Ca127 cells are tongue origin and JHU022 and JHU029 cells are from larynx origin.
Bitter melon extract (BME) was prepared from the Chinese variety of young bitter melons (raw and green) as described previously (Rajamoorthi et al. (2013) PLoS ONE; 8, e78006). Briefly, BME was prepared by aqueous extraction from whole fruit without seeds using a household juicer at room temperature with subsequent centrifugation at 15000 g at 4 C for 30 min. BME was stored at −80 C for further analysis. […]

[2] = system: HNC (JHU022, JHU029, Ca127) cell lines; type: cell-based
Protocol: Ca127, JHU029, JHU022 and NOK were seeded in 96 well-plate (5000 cells/well) and cells were treated with different concentration of M-I for 48 h. There were untreated control and DMSO treated vehicle control group for comparison. Cytotoxicity assay was performed using Cell Counting Kit-8 (Dojindo Molecular Technology, Rockville, Md., USA) according to manufacturer instruction.
Due to their limited reported biology, the Inventors have selected a few triterpenoids and triterpene glycosides, based on their availability, for preliminary in vitro screening against HNC (JHU022, JHU029, Ca127) cell lines. The Inventors identified momordicine-I (M-I) as one of the chemical constituents at the retention time of 21.06 min in the BME (FIG. 1A). The M-I [C30H4804, PubChem CID: 14807332; IUPAC Name: (3S, 7S, 8S, 9R, 10R, 13R, 14S, 17R) 3,7-dihydroxy-17-(4-hydroxy-6-methylhept-5-en-2-yl)-4,4,13,14-tetramethyl-2,3,7,8,10,11, 12,15, 16,17-decahydro-1H-cyclopenta[a]phenanthrene-9-carbaldehyde] is a white crystalline solid that belongs to the cucurbitane-type triterpene class (FIG. 1B). […] Other compounds, mom ordicoside K (MK), and karavilagenin D (KD), were also examined on HNC cell cytotoxicity assay. These, two other compounds required much higher amounts (>50 ug/mL) even for -40% cell death.

[3] = system: c-Myc, survivin and cyclin D1; assay: Western blot for STAT3 downstream molecules in HNC cells; type: cell-based; conditions: Ca127 and JHU029 cells
Protocol: The powder was dissolved in DMSO and added to the cells at different concentrations. Based on cytotoxicity data, Ca127 and JHU029 cells were treated with 10 ug/mL and JHU022 cells were treated with 20 ug/mL dose of M-I and incubated for 48 hr for further experiments. All the experiments were done at least in triplicate.
HRP conjugated anti-mouse or anti-rabbit secondary antibodies were purchased from Bio-Rad (Hercules, Calif., USA). The blot was reprobed with HRP conjugated -actin antibody (1:5000; SBT) to compare protein load in each lane. Densitometry analysis was done using Image J software (NIH, Bethesda, Md., USA).

[4] = system: MDA-MB-231 cells; type: cell-based
Description: FIG. 10A illustrates Treated or untreated cells were stained with Calcein AM (green color indicates live cells) and ethidium homodimer-1 (red color inndicates dead cells-shown by white arrows) to quantitate the live and dead cells by fluorescence microscopy with corresponding bright field images. Magnification 10X. Arrows indicate dead cells. FIG. 10B illustrates Quantitation of relative dead cells, calculated from five random fields. Small bar indicates standard error ***p<0.001).
FIG. 11 illustrates M-I activates NK cells for killing activity. MDA-MB-231 cells were co-cultured with NK cells activated by IL2, BME or M-I. After 24 hr cell lysates were prepared and subjected to Western blot analysis using specific antibodies. Left panel: Representative western blot images for cleaved PARP, expression of cleaved Caspase 9 and 3 are shown. Membrane was reprobed with antibody for Actin as an internal control.
NK cells are implicated in drug induced resistant cancer cells to drive tumor growth (Smalley et al., 2020). […] Bitter melon extract was used as a control. Control or M-I treated NK3.3 cells were also cocultured with MDA-MB-231 cells at 1:5 (Target:Effector) ratio for 24 h and stained for viable/dead cells. […] The apoptotic markers were further examined by Western blot analysis.

[5] = system: 4T1 (mouse) cells implanted into the mammary fat pad; assay: Orthotopic syngeneic breast cancer mouse model (4T1); type: in vivo, Balb/c mice; conditions: M-I 30 mg/mouse/day ip; pilot study
Protocol: FIG. 12 illustrates 4T1 cells tumor bearing mice were randomly divided into two groups mice (n=4). Starting day of treatment by M-I (red color) or vehicle (control-blue color) graph was marked by up arrow.
The Inventors further evaluated the efficacy of M-I in orthotopic breast cancer mouse models in a pilot study. Syngeneic breast cancer model using 4T1 (mouse) cells implanted into the mammary fat pad of Balb/c mice. Mice were divided into two groups. One group received M-I (30 mg/mouse/day) and the other group received vehicle as a control by ip.

[6] = literature; listed as Momordicine I; cited from earlier work
[7] = system: insulin secretion; conditions: in vitro; cited from earlier work

## CC(C)=CC(O)CC(C)[C@H]1CC[C@@]2(C)[C@@H]3[C@@H](O)C=C4[C@@H](CC[C@H](O)C4(C)C)[C@]3(C=O)CC[C@]12C (stereo partly drawn) [M-I, (3S, 7S, 8S, 9R, 10R, 13R, 14S, 17R) 3,7-dihydroxy-17-(4-hydroxy-6-methylhept-5-en-2-yl)-4,4,13,14-tetramethyl-2,3,7,8,10,11, 12,15, 16,17-decahydro-1H-cyclopenta[a]phenanthrene-9-carbaldehyde]
[1]
  IC50: < 8 µg/mL
[2]
  inhibition of HNC cells in cytotoxicity assay: inhibited HNS cells in a dose-dependent manner
[3]
  STAT3 downstream molecules c-Myc, survivin and cyclin D1: significant inhibition
[4]
  cytotoxicity of treated NK3.3 cells against MDA-MB-231 cells: enhanced cytotoxicity
[4]; M-I treated NK cells co-cultured with MDA-MB-231 cells, 24 hr, Western blot
  caspase 9/3 and PARP cleavage in breast cancer cells: activate caspase 9/3 and PARP cleavage
[5]
  tumor volumes versus vehicle control: significantly reduced
[6]
  Reported Biology: stimulate insulin; also recorded: cardiac fibrosis
[7]
  insulin secretion: stimulate insulin secretion
